Patent publication US20160038474A1, “COMPOSITIONS AND METHODS FOR THE MODULATION OF HEMOGLOBIN (S)” (GLOBAL BLOOD THERAPEUTICS, INC., priority 2013, published 2016)
Where two headings read alike, the source gives them in different places.

Legend:
HbS [1] = molecular target: T1, HbS (Homo sapiens, UniProt P68871+P69905, E7V); assay: 96-well oxygen dissociation assay (ODA); assay type: biochemical; conditions: for potency at increasing the oxygen affinity of HbS compared with 5-HMF: 96-well ODA; for Hb in ODA (Δoxy state): [Hb] 3 μM, [cmp] 3 μM
From the text: Results: Table 4 below lists the change in oxygen affinity (Δoxy state). After two hours of passive deoxygenation, compound 12, at an equimolar concentration to Hb, increased the Hb oxygen affinity by 6-fold.

[2] = test system: sickle cell disease patient whole blood (ssRBCs); assay: Viscosity assay, hypoxic sickle cell blood; assay type: cell-based, human; conditions: [Hb] 1.5 mM, two hours of hypoxia
Protocol: Sickle cell disease patients develop anemia as a means for the circulatory system to compensate for increase in blood viscosity caused by the non-deformable sickle cell red blood cells (ssRBCs). The effects of 5-HMF, compound 5, compound 9, or compound 12 were tested on sickle cell disease patient blood rheology to determine if these compounds decrease the viscosity of ssRBCs that have undergone hypoxia. Using blood from patients with sickle cell disease, whole blood (30% hematocrit, ˜1.5 mM Hb) was incubated with 5-HMF, compound 5, compound 9, or compound 12 during exposure to two hours of hypoxia (2.4% 02). A cone-plate viscometer was used to measure the viscosity at shear rates ranging from 60 s^−1 to 415 s^−1.

washed red blood cells = assay: Reverse Hemox assay (OEC), washed red blood cells; assay type: cell-based, human
Protocol: (§1) Oxygen Equilibrium Curves (OEC) of whole blood before and after treatment with different concentrations of compounds 12, 22 and 23 were performed as follows using a HEMOX analyzer (TCS Scientific, New Hope, Pa.). Blood samples from homozygous sickle cell patients were obtained though the Hemoglobinopathy Center at Children's Hospital Oakland Research Institute (CHORI) with Institutional Review Board approval. The hematocrit was adjusted to 20% using autologous plasma and the blood samples were incubated for 1 hour at 37° C. in absence or presence of compounds. 100 μl of these samples were added to 5 mL of Hemox butter (30 mM TES, 130 mM NaCl, 5 mM KCl, pH=7.4) at 37° C. and then transferred to the Hemox sample chamber. The samples were saturated with oxygen by flushing with compressed air for 10 minutes. The samples were then flushed with pure nitrogen and the respective absorbances of oxy- and deoxy-Hb are recorded as a function of the solution pO2. The oxygen equilibrium data were then fitted to the Hill Model to obtain values for p50. The deoxygenation curves for both whole blood alone (control) and whole blood in the presence of the compound were collected with the TCS software.
(§2) Reverse hemox assay was performed essentially as described in Example 2, above, using either washed red blood cells or whole blood.
Results: Table 4, below, indicates the percent change in p50 (delta p50%) for each compound tested. In the washed red blood cells (RBCs), 5-HMF, compound 5, and compound 12 (1 mM compound) gave p50 of 20, 9 and 7 mm Hg, respectively, compared to the control red blood cells (delta p50=30 mm Hg). To determine the effects of plasma proteins on compound activity. OECs were measured in whole blood from sickle cell disease patients. 5-HMF, compound 5, compound 9, and compound 12 gave p50 of 27, 18, 11 and 6 mm Hg, respectively, compared to the control blood p50 of 30 mm Hg.

HbS [3] = molecular target: T1, HbS; assay: 96-well oxygen dissociation assay (ODA); assay type: biochemical; conditions: [Hb] 3 μM; [cmp] 1 μM
[4] = molecular target: T2, whole blood from homozygous sickle cell patients, Hb(S) (Homo sapiens, UniProt P68871+P69905, E7V); assay: Reverse Hemox assay (oxygen equilibrium curves), whole blood; assay type: cell-based; conditions: for Whole Blood OEC (delta p50%): [Hb] 1 mM; for p50: whole blood from sickle cell disease patients, control blood p50 30 mm Hg; for Reverse Hemox delta p50% (class) / Reverse Hemox delta p50%: 1 mM compound, whole blood, hematocrit 20%; for Reverse Hemox delta p50%: 1 hour 37° C.
T2 construct: Oxygen Equilibrium Curves (OEC) of whole blood before and after treatment; from tissue; host or cells: whole blood (or washed red blood cells) of homozygous sickle cell patients
Protocol: as §1
Results: Table 3 below lists the delta p50% values where “+” indicates a delta p50% of between 0 and 29, “++” indicates a delta p50% of between 30 and 50, and “+++” indicates a delta p50% of 50 or greater.
as §2

HbS/A = molecular target: T3, HbS/A (Homo sapiens, UniProt P68871+P69905, E7V); assay: R/T assay (relaxed-to-tense transition); assay type: biochemical; conditions: HbS/A 3 μM
T3 construct: A mixture of HbS/A was purified from blood obtained from homozygous sickle cell patients; from tissue; host or cells: blood of homozygous sickle cell patients
Protocol: This ability can be expressed as a “delta R” value (i.e., the change in the time-period of the R state after hemoglobin is treated with a compound, as compared to the period without treatment with the compound). Delta R is the % R to remaining after the compounds treatment compared with no treatment (e.g., if R % without treatment is 8% while with treatment with a target compound is 48% R at 30 μM, then % R is 40% for that compound.
A mixture of HbS/A was purified from blood obtained from homozygous sickle cell patients though the Hemoglobinopathy Center at Children's Hospital Oakland Research Institute (CHORI) with Institutional Review Board approval. HbS/A (at a final concentration of 3 μM) was incubated for 1 hr at 37° C. in presence or absence of compounds in […] potassium phosphate buffer, pH=7.4 and 30 μM 2,3 diphosphoglycerate (DPG) in 96 well plates in a final volume of 160 μl. Compounds were added at different concentrations (3 μM to 100 μM final concentrations). Plates were covered with a Mylar film. After incubation was completed the Mylar cover was removed and the plates were placed in a Spectrostar Nano plate reader previously heated at 37° C. Five minutes later, N2 (flow rate=20 L/min) was flowed through the spectrophotometer. Spectroscopic measurements (300 nm to 700 nm) were taken every 5 min for 2 hours. Data analysis was performed by using linear regression from the data retrieved for all wavelengths.

[5] = Rat pharmacokinetics and blood/plasma partitioning (Example 1); assay type: in vivo, Rats (Sprague-Dawley); conditions: for level of compound in blood versus plasma, overall exposure / relative proportion in blood (as compared to plasma) at peak concentration (Cmax): dosed orally; for Vd / bioavailability / clearance / blood plasma ratio: male, Sprague-Dawley; for Vd / bioavailability: in vivo; for Vd / clearance: oral 10 mg/kg or intravenous 1 mg/kg; for Vd: read-out: Vss; for bioavailability: oral 10 mg/kg, intravenous 1 mg/kg; for clearance: plasma; for blood plasma ratio: whole blood and plasma, oral, 10 mg/kg
Protocol: This experiment was established and used in order to assess the pharmacokinetic (PK) properties of the compounds.
Sample collection and data analysis: Rats (Sprague-Dawley, male, 8-12[…] weeks old) were dosed with one of three compounds corresponding to compound 12, compound 22 or compound 23. The rats received oral (10 mg/kg) or intravenous (1 mg/kg) doses of the compound. Rats were fasted overnight before the experiments and provided with food after the 2 hour sampling time point.
Blood samples were collected at different time points. Blood was anti-coagulated by 3.2% TSC (trisodium citrate) and a portion was separated into plasma fraction by centrifugation and removal of blood cells. Plasma and lysed blood samples were anal) zed for drug concentration using LC-MS/MS. PK parameters were calculated by non compartmental analysis of the concentration-time profiles using WinNonLin software (Pharsight, Mountain View, Calif.). Apparent elimination half-life (t1/2) values were calculated as ln(2)/k. Area under the concentration-time curve (AUC) values were estimated using the linear trapezoidal method. AUClast values were calculated from the dosing time to the last measurable concentration. AUCinf values were calculated as the sum of the corresponding AUClast and the ratio of the last detectable concentration divided by k. Plasma clearance (Cl) is calculated from Dose/AUCinf. Volume of distribution at steady state (Vss) is calculated from Mean Residence Timeinf×Clss. Maximum concentration (Cmax) and time to Cmax (Tmax) was recorded as observed. The blood/plasma partitioning ratio was calculated at each experimental time point.

purified HbS = molecular target: T4, purified HbS (Homo sapiens, UniProt P68871+P69905, E7V); assay: HbS polymerization assay; assay type: biochemical; conditions: 75 μM compound; 50 μM HbS
T4 construct: HbS is purified by the CRO VIRUSYS, from blood obtained from homozygous sickle cell patients; tissue VIRUSYS (CRO that did the purification); host or cells: blood of homozygous sickle cell patients
Protocol: Polymerization assays are carried out in vitro using purified HbS exchanged into 1.8 M potassium phosphate buffer at pH 7.4. Using a slightly modified protocol (Antonini and Brunori, 1971). HbS is purified by the CRO VIRUSYS, from blood obtained from homozygous sickle cell patients through the Hemoglobinopathy Center at Children's Hospital Oakland Research Institute (CHORI) with Institutional Review Board approval. Compounds are prepared in 100% DMSO and a desired amount is added to 50 μM of purified HbS at a final DMSO concentration of 0.3%. Final potassium phosphate concentration is adjusted to 1.8 M using a combination of 2.5 M potassium phosphate stock solution and water at pH 7.4. The reaction mixture is incubated for an hour at 37° C. and then transferred into a 24-well plate for deoxygenation in a glove box containing 99.5% nitrogen and 0.5% oxygen. The 24-well plate is not covered and incubated at 4° C. on a plate cooler inside the glove box for one and a half hours. Fifty μl of the reaction mixture is transferred into a 96-well plate and the absorbance at 700 nm is measured every minute for one hour at 37° C. in a plate reader located inside the glove box. A plot of the absorbance against time is fitted using a Boltzman sigmoidal fit and the delay time (from zero to time at half Vmax) is measured. To compare and rank compounds, delay times are expressed as percent delay (% DT), which is defined as the difference in delay times for HbS/compound and HbS alone multiplied by 100 and divided by the delay time for HbS alone.
The ability of 5-HMF and compound 12 to delay HbS polymerization was evaluated as described in Example 2, above. Purified HbS (50 μM) was pre-incubated with 25 μM, 50 μM, or 100 μM of 5-HMF or compound 12, then passively de-oxygenated at 4° C. in 1.8 M potassium phosphate. Polymerization was induced via temperature jump from 4° C. to 37° C. Polymerization was quantified based on turbidity of the HbS solution under continued hypoxia.

[6] = read-out: Blood/plasma (Ratio of exposure AUCINF)
[7] = read-out: Blood/plasma (Ratio of peak concentration)

COc1cc(C=O)c(OCc2cccnc2-c2ccnn2C(C)C)cn1 [Compound 9, 2-methoxy-5-[[2-(2-propan-2-ylpyrazol-3-yl)pyridin-3-yl]methoxy]pyridine-4-carbaldehyde]
potency at increasing the oxygen affinity of HbS compared with 5-HMF (HbS [1]): more potent at increasing the oxygen affinity of HbS than 5-hydroxy furfural
Hb in ODA (Δoxy state) (HbS [1]): 23
Viscosity (ΔcP) ([2]; [cmp] 1.6 mM): 2.3 cP
Viscosity (ΔcP) ([2]; [cmp] 8 mM): >2.4 cP
Washed RBC OEC (delta p50%) (washed red blood cells; [Hb] 1 mM, [cmp] 1 mM): 69%
Hb in ODA (Δoxy state) (HbS [3]): 6
Whole Blood OEC (delta p50%) ([4]; [cmp] 1 mM): 63%
Whole Blood OEC (delta p50%) ([4]; [cmp] 3 mM): >80%
p50 [4]: 11 mm Hg

COc1cc(C=O)c(OCc2cccnc2-c2ccccc2C)cn1 [Compound 23, 2-methoxy-5-[[2-(2-methylphenyl)pyridin-3-yl]methoxy] pyridine-4-carbaldehyde]
R-T delta R (HbS/A; 9 μM compound): 37.15
R-T delta R (class) (HbS/A; 9 μM compound): ++ (a delta R of between 30 and 50)
R-T delta R (HbS/A; 10 μM compound): 51.55
R-T delta R (class) (HbS/A; 10 μM compound): +++ (a delta R of 50 or greater)
level of compound in blood versus plasma, overall exposure [5]: 1 fold
relative proportion in blood (as compared to plasma) at peak concentration (Cmax) [5]: 3 fold
Vd [5]: 3.15 L/kg
bioavailability [5]: 1.8%
clearance [5]: 13.7 mL/min/kg
blood plasma ratio [5, 6]: 4
blood plasma ratio [5, 7]: 1
Polymerization % DT (class) (purified HbS): †† (activity >80% but ≦120%)
Polymerization % DT (percent delay) (purified HbS): 98.19%
Reverse Hemox delta p50% (class) [4]: +++ (a delta p50% of 50 or greater)
Reverse Hemox delta p50% [4]: 72.45%

COc1cc(C=O)c(OCc2cccnc2-c2[nH]ncc2C)cn1 [Compound 5, 2-methoxy-5-[[2-(4-methyl-1H-pyrazol-5-yl)pyridin-3-yl]methoxy]pyridine-4-carbaldehyde]
potency at increasing the oxygen affinity of HbS compared with 5-HMF (HbS [1]): more potent at increasing the oxygen affinity of HbS than 5-hydroxy furfural
Hb in ODA (Δoxy state) (HbS [1]): 10
Viscosity (ΔcP) ([2]; [cmp] 8 mM): >2.4 cP
p50 (washed red blood cells; washed RBCs, 1 mM compound, control 30 mm Hg): 9 mm Hg
Hb in ODA (Δoxy state) (HbS [3]): 2
Whole Blood OEC (delta p50%) ([4]; [cmp] 1 mM): 49%
Whole Blood OEC (delta p50%) ([4]; [cmp] 3 mM): 71%
p50 [4]: 18 mm Hg

COc1cc(C=O)c(OCc2cccnc2-c2ccnn2CC(F)F)cn1 [Compound 22, 5-[[2-[2-(2,2-difluoroethyl)pyrazol-3-yl]pyridin-3-yl]methoxy]-2-methoxypyridine-4-carbaldehyde]
R-T delta R (HbS/A; 9 μM compound): 31.02
R-T delta R (class) (HbS/A; 9 μM compound): ++ (a delta R of between 30 and 50)
R-T delta R (HbS/A; 10 μM compound): 36.25
R-T delta R (class) (HbS/A; 10 μM compound): ++ (a delta R of between 30 and 50)
level of compound in blood versus plasma, overall exposure [5]: 5 fold
relative proportion in blood (as compared to plasma) at peak concentration (Cmax) [5]: 5 fold
Vd [5]: 3.1 L/kg
bioavailability [5]: 6.6%
clearance [5]: 9 mL/min/kg
blood plasma ratio [5, 6]: 33
blood plasma ratio [5, 7]: 5
Polymerization % DT (class) (purified HbS): †† (activity >80% but ≦120%)
Polymerization % DT (percent delay) (purified HbS): 90.22%
Reverse Hemox delta p50% (class) [4]: +++ (a delta p50% of 50 or greater)
Reverse Hemox delta p50% [4]: 68.69%
